This is an account of results in ChEMBL document CHEMBL4342491, “Development of a Versatile and Sensitive Direct Ligand Binding Assay for Human NR5A Nuclear Receptors” (ACS Med Chem Lett, 2020).

The structures appear in SMILES notation.

Assay [1] deals with T1, Steroidogenic factor 1 (Homo sapiens, UniProt Q13285).
Description: Displacement of 6N-FAM from SF1 LBD (218 to 461 residues) (unknown origin) expressed in Escherichia coli BL21 pLysS by competitive binding based fluorescence polarization assay
The target of assay [2] is Nuclear receptor subfamily 5 group A member 2 (Homo sapiens) (UniProt O00482). The experiment in a line: Binding affinity to human LRH1 LBD expressed in Escherichia coli BL21 by electrophoretic mobility shift assay. On the technique in general: Mobility shift assays separate free from complexed probe on a gel.
The target in assay [3] is T1, Steroidogenic factor 1. Nature of the assay: Binding affinity to human SF1 LBD (218 to 461 residues) expressed in Escherichia coli BL21 by electrophoretic mobility shift assay.
Assay [4] addresses T1, Steroidogenic factor 1. Nature of the assay: Inhibition of Gal4-fused human SF1 LBD (198 to 462 residues) expressed in CHO-K1 cells. It counts as cell-based.
Assay [5] concerns the target T1, Steroidogenic factor 1. The experiment in a line: Binding affinity to SF1 LBD (218 to 461 residues) (unknown origin) expressed in Escherichia coli BL21 pLysS measured after overnight incubation by fluorescence polarization assay.

T1 sequence (Q13285 whole entry, the tested form may be a part): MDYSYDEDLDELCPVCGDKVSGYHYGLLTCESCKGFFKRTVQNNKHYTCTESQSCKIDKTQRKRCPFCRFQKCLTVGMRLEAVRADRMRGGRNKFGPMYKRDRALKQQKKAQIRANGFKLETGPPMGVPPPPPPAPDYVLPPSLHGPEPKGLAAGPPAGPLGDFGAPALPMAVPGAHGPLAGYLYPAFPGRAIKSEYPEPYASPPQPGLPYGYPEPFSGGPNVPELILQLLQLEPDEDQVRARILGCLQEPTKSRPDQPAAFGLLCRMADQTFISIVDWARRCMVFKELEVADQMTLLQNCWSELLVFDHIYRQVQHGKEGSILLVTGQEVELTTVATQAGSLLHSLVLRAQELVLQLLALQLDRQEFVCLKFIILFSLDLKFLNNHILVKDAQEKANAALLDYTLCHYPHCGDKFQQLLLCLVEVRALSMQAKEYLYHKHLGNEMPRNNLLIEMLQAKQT
Chain of Nuclear receptor subfamily 5 group A member 2 (Homo sapiens) (O00482 whole entry, the tested form may be a part): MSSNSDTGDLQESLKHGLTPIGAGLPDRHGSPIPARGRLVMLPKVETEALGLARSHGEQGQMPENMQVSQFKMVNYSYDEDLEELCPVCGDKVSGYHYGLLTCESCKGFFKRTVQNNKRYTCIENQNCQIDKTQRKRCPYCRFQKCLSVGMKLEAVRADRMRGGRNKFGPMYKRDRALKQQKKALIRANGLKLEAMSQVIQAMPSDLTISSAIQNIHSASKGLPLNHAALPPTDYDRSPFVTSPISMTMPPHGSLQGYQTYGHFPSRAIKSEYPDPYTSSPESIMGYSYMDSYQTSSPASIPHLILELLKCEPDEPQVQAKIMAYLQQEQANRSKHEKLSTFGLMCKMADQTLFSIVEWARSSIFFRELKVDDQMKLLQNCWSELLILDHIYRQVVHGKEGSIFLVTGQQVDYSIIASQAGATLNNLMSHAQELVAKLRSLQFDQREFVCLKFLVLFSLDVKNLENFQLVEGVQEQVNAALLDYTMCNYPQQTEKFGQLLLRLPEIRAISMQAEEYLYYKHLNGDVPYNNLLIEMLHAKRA

The term Ki denotes the equilibrium dissociation constant of an inhibitor or competing ligand from its target. The low end stands for a stronger hold on the target, the high end for a looser hold on the target. `C=C(c1ccccc1)[C@@]12CC[C@H](N)[C@@H]1CC(CCCCCCCCCC(=O)OC)=C2c1ccccc1`: in assay [1], the Ki is 7800 nM.
For `CCCC(=O)OC[C@H](COP(=O)(O)O[C@H]1[C@H](O)[C@@H](OP(=O)(O)O)[C@H](OP(=O)(O)O)[C@@H](OP(=O)(O)O)[C@H]1O)OC(=O)CCC`, in assay [2], the Activity is 120 nM.
On to `CCCCC/C=C\C/C=C\C/C=C\C/C=C\CCCC(=O)OC(COC(=O)CCCCCCCCCCCCCCCCC)COP(=O)(O)O[C@@H]1[C@H](O)[C@H](O)[C@@H](OP(=O)(O)O)[C@H](OP(=O)(O)O)[C@H]1O` (some centres undefined), for which the Activity in assay [3] came out at 250 nM. This molecule returned a Ki in assay [1] of 418 nM.
With `CCCCNC(=O)c1cc(C(C)(C)C)cc(C(C)(C)C)c1O`, in assay [1], the affinity, expressed as Ki, was 34700 nM.
On the same count and under the same terms, under `C=C(c1ccccc1)[C@@]12CC[C@H](NS(N)(=O)=O)C1CC(CCCCCC)=C2c1ccccc1` (some centres undefined) stands 1400 nM.
One may read the IC50 as the concentration that inhibits the measured activity by half. Higher therefore signals weaker potency in that assay. As to `CCOC(=O)C(C)Oc1cccc2c(=O)n(CC(=O)Nc3ccc4c(c3)OCCO4)ccc12` (centres undefined), it took 30 nM to reach half-maximal inhibition in assay [4] (IC50).
As to `CCCCCCCCCCCC(=O)OC[C@H](COP(=O)([O-])OCC[N+](C)(C)C)OC(=O)CCCCCCCCCCC`, the Ki in assay [1] was determined as 850 nM. This counts as sub-micromolar.
As a reminder, the Kd is the free concentration of one partner at which half of the binding sites on the other are occupied at equilibrium, for simple one-to-one binding. A lower Kd goes with higher affinity. With `C=C(c1ccccc1)[C@@]12CC[C@H](NS(N)(=O)=O)[C@@H]1CC(CCCCCCCCCC(=O)Nc1ccc3c(c1)C(=O)OC31c3ccc(O)cc3Oc3cc(O)ccc31)=C2c1ccccc1`, in assay [5], the Kd worked out at 12.3 nM.
